Source: US20070111258A1, “Compositions and methods for modulating the acute phase response” (priority 2005, published 2007)

System: CREBH
Test: Confocal immunofluorescence of CREBH translocation in COS7 cells
Type: cell-based
Settings: Tm 5 μg/ml 4 hours
Method: FIG. 3 depicts the effects of ER stress on CREBH: proteolytic cleavage of CREBH to release its N-terminal fragment that translocates into the nucleus. (A) Illustration of transmembrane domains and lumenal domains of SREBP, ATF6, Luman and CREBH in human (hs), mouse (mm). The conserved residues for S1P and S2P recognition are highlighted. (B) Cleavage of CREBH in H2.35 cells under different stimuli. H2.35 cells stably expressing flag-tagged human CREBH were treated with 0.5 μg/ml BFA, 20 ng/ml TNFα, 40 ng/ml IL6, 5 mM DTT, 0.5 μM Tg or 5 μg/ml Tm for 8 hours. Untransfected H2.35 cells (lane 1) and the H2.35 cells that stably express human CREBH (lane 2) were cultured under normal conditions as control. Total cell lysates were collected for Western blot analysis by using an anti-flag monoclonal antibody (upper panel). Levels of α-actin were determined for control of protein loading (lower panel). (C) Cleavage of CREBH in H2.35 cells under Tm treatment for various time periods. The H2.35 cells stably expressing flag-tagged CREBH were cultured in the absence or presence of Tm (5 μg/ml) for 4, 8 or 12 hours. […]
Immunofluorescence staining was performed as previously described (Paterson et al., 1995). […] The fluorescence images were examined by a confocal laser scanning fluorescence microscopy using an LSM510 (Carl Zeiss, Thornwood, N.Y.).

tunicamycin [Tm]
nuclear accumulation of immunoreactive CREBH protein: a significant portion of the immunoreactive CREBH protein accumulated in the nucleus
